# Assay results from paper PMC3367954, “The Influence of pH on the Specific Adhesion of P Piliated Escherichia coli” (PLoS ONE, 2012).
# Molecular target: T1, PapG adhesin (isolated P pili) (Escherichia coli, UniProt P13720)
# T1 construct: gene papGI; native PapG at the tip of isolated P pili (rod of PapA), sheared from E. coli HB101/pPAP5, ammonium sulfate precipitated; PapG not purified separately
# Assay: surface plasmon resonance (Biacore X100), isolated P pili over immobilised galabiose-BSA
# Format: binding
# Details: galabiose as BSA conjugate (about 30 per BSA) on CM3 chip, BSA reference subtracted; citrate-phosphate buffer pH 3.5-8.0, 25 °C; multivalent
# T1 sequence (P13720 22-335): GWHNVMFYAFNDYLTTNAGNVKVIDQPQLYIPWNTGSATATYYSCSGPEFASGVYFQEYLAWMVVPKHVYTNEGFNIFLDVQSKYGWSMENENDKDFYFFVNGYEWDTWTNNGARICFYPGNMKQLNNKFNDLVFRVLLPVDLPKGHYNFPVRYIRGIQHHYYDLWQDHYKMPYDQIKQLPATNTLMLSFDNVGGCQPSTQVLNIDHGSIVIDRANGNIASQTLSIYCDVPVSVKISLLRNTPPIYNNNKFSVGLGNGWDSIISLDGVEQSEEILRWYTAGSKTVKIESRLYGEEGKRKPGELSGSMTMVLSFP
structure (smiles),measurement,value
"OC[C@H]1O[C@H](O[C@@H]2[C@H](O)[C@@H](O)C(O)O[C@@H]2CO)[C@H](O)[C@@H](O)[C@H]1O (stereo partly drawn) [galabiose, α-D-Gal-(1–4)-β-D-Gal]","surface plasmon resonance (Biacore X100), isolated P pili over immobilised galab",the binding stability of both isolated pili and bacteria to galabiose-coated surfaces was high
